Data taken from patent US8580829B2 (Boehringer Ingelheim International GmbH, priority 2010, dated 2013).

Experiments:
[1] = target: T1, recombinant human FLAP protein (Homo sapiens, UniProt P20292); assay: FLAP binding assay (Scintillation Proximity Assay, displacement of [125I]L-691,831); conditions: recombinant human FLAP membranes, [125I]L-691,831 probe; read-out: FLAP SPA IC50
T1 construct: made in house; host or cells: Sf9 insect cells (100,000 x g membrane fraction)
T1 sequence (P20292 1-161): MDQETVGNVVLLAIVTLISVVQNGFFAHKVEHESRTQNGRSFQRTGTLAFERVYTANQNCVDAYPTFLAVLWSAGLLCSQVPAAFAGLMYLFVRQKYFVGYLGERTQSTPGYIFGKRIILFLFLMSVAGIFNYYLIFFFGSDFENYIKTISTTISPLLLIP
Procedure, shortened: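 WGA scintillation proximity beads were stirred 1 h with 5 μg of FLAP-containing membrane protein. The membranes came from baculovirus Sf9 cells, Dounce-lysed and spun to a 100,000×g pellet in buffer at pH 7.5.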

[2] = tested on: synthesis of LTB4 in human whole blood; assay: human whole blood LTB4 production inhibition assay; type: cell-based; conditions: Homo sapiens, heparinized human whole blood, calcimycin 20 μM; read-out: hWB LTB4 IC50
Procedure, shortened: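 Heparinized human whole blood preincubated with compound 15 min at 37 °C, then stimulated with calcimycin (20 μM final) for 30 min at 37 °C. Plasma LTB4 measured after low-speed centrifugation by antibody-based homogeneous time-resolved fluorescence.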

Compound | IC50 [1] | IC50 [2]
N#CCn1cc(-c2nc(C3(c4ccc(-c5cnc(N)nc5)cc4)CCC3)no2)cn1 [Example 238, [4-(3-{1-[4-(2-Amino-pyrimidin-5-yl)-phenyl]-cyclobutyl}-[1,2,4]oxadiazol-5-yl)-pyrazol-1-yl]-acetonitrile] | 1 nM | 37 nM
Nc1ncc(-c2ccc(C3(c4noc(-c5cnn(CC(=O)N6CCC(O)C6)c5)n4)CCC3)cc2)cn1 (stereo not shown) [Example 239, 2-[4-(3-{1-[4-(2-Amino-pyrimidin-5-yl)-phenyl]-cyclobutyl}-[1,2,4]oxadiazol-5-yl)-pyrazol-1-yl]-1-(3-hydroxy-pyrrolidin-1-yl)-ethanone] | 6.2 nM | 2500 nM
CN(C)CCn1cc(-c2nc(C3(c4ccc(-c5cnc(N)nc5)cc4)CCC3)no2)cn1 [Example 240, 5-[4-(1-{5-[1-(2-Dimethylamino-ethyl)-1H-pyrazol-4-yl]-[1,2,4]oxadiazol-3-yl}-cyclobutyl)-phenyl]-pyrimidin-2-ylamine] | 3.6 nM | 47 nM
COCCN(C)C(=O)Cn1cc(-c2nc(C3(c4ccc(-c5cnc(N)nc5)cc4)CCC3)no2)cn1 [Example 241, 2-[4-(3-{1-[4-(2-Amino-pyrimidin-5-yl)-phenyl]-cyclobutyl}-[1,2,4]oxadiazol-5-yl)-pyrazol-1-yl]-N-(2-methoxy-ethyl)-N-methyl-acetamide] | 3.5 nM | 140 nM
CN(CC1CCCO1)C(=O)Cn1cc(-c2nc(C3(c4ccc(-c5cnc(N)nc5)cc4)CCC3)no2)cn1 (stereo not shown) [Example 242, 2-[4-(3-{1-[4-(2-Amino-pyrimidin-5-yl)-phenyl]-cyclobutyl}-[1,2,4]oxadiazol-5-yl)-pyrazol-1-yl]-N-methyl-N-(tetrahydro-furan-2-ylmethyl)-acetamide] | 5.4 nM | 120 nM
CC(C)N1CCN(C(=O)Cn2cc(-c3nc(C4(c5ccc(-c6cnc(N)nc6)cc5)CCC4)no3)cn2)CC1 [Example 243, 2-[4-(3-{1-[4-(2-Amino-pyrimidin-5-yl)-phenyl]-cyclobutyl}-[1,2,4]oxadiazol-5-yl)-pyrazol-1-yl]-1-(4-isopropyl-piperazin-1-yl)-ethanone] | 8.5 nM | 200 nM
Nc1ncc(-c2ccc(C3(c4noc(-c5cn(C(c6ccccc6)(c6ccccc6)c6ccccc6)cn5)n4)CCC3)cc2)cn1 [Example 244, 5-(4-{1-[5-(1-Trityl-1H-imidazol-4-yl)-[1,2,4]oxadiazol-3-yl]-cyclobutyl}-phenyl)-pyrimidin-2-ylamine] | 250 nM | > 5000 nM
Cn1ccnc1-c1nc(C2(c3ccc(-c4cnc(N)nc4)cc3)CCC2)no1 [Example 245, 5-(4-{1-[5-(1-Methyl-1H-imidazol-2-yl)-[1,2,4]oxadiazol-3-yl]-cyclobutyl}-phenyl)-pyrimidin-2-ylamine] | 38 nM | 1700 nM
N#CC1CCN(CCn2cc(-c3nc(C4(c5ccc(-c6cnc(N)nc6)cc5)CCC4)no3)cn2)CC1 [Example 246, 1-{2-[4-(3-{1-[4-(2-Amino-pyrimidin-5-yl)-phenyl]-cyclobutyl}-[1,2,4]oxadiazol-5-yl)-pyrazol-1-yl]-ethyl}-piperidine-4-carbonitrile] | 8.1 nM | 79 nM
CN(C(=O)Cn1cc(-c2nc(C3(c4ccc(-c5cnc(N)nc5)cc4)CCC3)no2)cn1)C1CCCOC1 (stereo not shown) [Example 247, 2-[4-(3-{1-[4-(2-Amino-pyrimidin-5-yl)-phenyl]-cyclobutyl}-[1,2,4]oxadiazol-5-yl)-pyrazol-1-yl]-N-methyl-N-(tetrahydro-pyran-3-yl)-acetamide] | 8.2 nM | 88 nM
Cn1cc(-c2nc(C3(c4ccc(-c5ccc(C6CC6)nc5)cc4)CCC3)no2)cn1 [Example 248, 2-Cyclopropyl-5-(4-{1-[5-(1-methyl-1H-pyrazol-4-yl)-[1,2,4]oxadiazol-3-yl]-cyclobutyl}-phenyl)-pyridine] | 730 nM | > 5000 nM
CC(CN(C)C)n1cc(-c2nc(C3(c4ccc(-c5cnc(N)nc5)cc4)CCC3)no2)cn1 (stereo not shown) [Example 249, 5-[4-(1-{5-[1-(2-Dimethylamino-1-methyl-ethyl)-1H-pyrazol-4-yl]-[1,2,4]oxadiazol-3-yl}-cyclobutyl)-phenyl]-pyrimidin-2-ylamine] | 7.8 nM | 69 nM
CC(=O)N1CCN(CCn2cc(-c3nc(C4(c5ccc(-c6cnc(N)nc6)cc5)CCC4)no3)cn2)CC1 [Example 250, 1-(4-{2-[4-(3-{1-[4-(2-Amino-pyrimidin-5-yl)-phenyl]-cyclobutyl}-[1,2,4]oxadiazol-5-yl)-pyrazol-1-yl]-ethyl}-piperazin-1-yl)-ethanone] | 8.6 nM | 220 nM
CN(C)C(=O)Cn1cnc(-c2nc(C3(c4ccc(-c5cnc(N)nc5)cc4)CCC3)no2)c1 [Example 251, 2-[4-(3-{1-[4-(2-Amino-pyrimidin-5-yl)-phenyl]-cyclobutyl}-[1,2,4]oxadiazol-5-yl)-imidazol-1-yl]-N,N-dimethyl-acetamide] | 36 nM | 2200 nM
Nc1ccc(-c2ccc(C3(c4noc(-c5cnn(C6COC6)c5)n4)CCC3)cc2)cn1 [Example 252, 5-(4-{1-[5-(1-Oxetan-3-yl-1H-pyrazol-4-yl)-[1,2,4]oxadiazol-3-yl]-cyclobutyl}-phenyl)-pyridin-2-ylamine] | 5.3 nM | 34 nM
Nc1ncc(-c2ccc(C3(c4noc(-c5cnn(CCN6CCCC6)c5)n4)CCC3)cc2)cn1 [Example 253, 5-[4-(1-{5-[1-(2-Pyrrolidin-1-yl-ethyl)-1H-pyrazol-4-yl]-[1,2,4]oxadiazol-3-yl}-cyclobutyl)-phenyl]-pyrimidin-2-ylamine] | 8.1 nM | 75 nM
CC(C)(O)Cn1cc(-c2nc(C3(c4ccc(-c5cnc(N)nc5)cc4)CC3)no2)cn1 [Example 254, 1-[4-(3-{1-[4-(2-Amino-pyrimidin-5-yl)-phenyl]-cyclopropyl}-[1,2,4]oxadiazol-5-yl)-pyrazol-1-yl]-2-methyl-propan-2-ol] | 190 nM | 4700 nM
Nc1ncc(-c2ccc(C3(c4noc(-c5cnn(C6COC6)c5)n4)CC3)cc2)cn1 [Example 255, 5-(4-{1-[5-(1-Oxetan-3-yl-1H-pyrazol-4-yl)-[1,2,4]oxadiazol-3-yl]-cyclopropyl}-phenyl)-pyrimidin-2-ylamine] | 150 nM | 1900 nM

The next lines start with the values.

IC50 [1] | IC50 [2] | Compound
22 nM | 220 nM | CO[C@@H]1CCN(C(=O)Cn2cc(-c3nc(C4(c5ccc(-c6cnc(N)nc6)cc5)CCC4)no3)cn2)C1 [Example 256, 2-[4-(3-{1-[4-(2-Amino-pyrimidin-5-yl)-phenyl]-cyclobutyl}-[1,2,4]oxadiazol-5-yl)-pyrazol-1-yl]-1-((R)-3-methoxy-pyrrolidin-1-yl)-ethanone]
100 nM | 2200 nM | Cn1cc(-c2nc(C3(c4ccc(-c5cnc(N)nc5)cc4)CC3)no2)cn1 [Example 257, 5-(4-{1-[5-(1-Methyl-1H-pyrazol-4-yl)-[1,2,4]oxadiazol-3-yl]-cyclopropyl}-phenyl)-pyrimidin-2-ylamine]
73 nM | 610 nM | Cn1cc(-c2nc(C3(c4ccc(-c5ccc(N)nn5)cc4)CCC3)no2)cn1 [Example 258, 6-(4-{1-[5-(1-Methyl-1H-pyrazol-4-yl)-[1,2,4]oxadiazol-3-yl]-cyclobutyl}-phenyl)-pyridazin-3-ylamine]
16 nM | 210 nM | CO[C@H]1CCN(C(=O)Cn2cc(-c3nc(C4(c5ccc(-c6cnc(N)nc6)cc5)CCC4)no3)cn2)C1 [Example 259, 2-[4-(3-{1-[4-(2-Amino-pyrimidin-5-yl)-phenyl]-cyclobutyl}-[1,2,4]oxadiazol-5-yl)-pyrazol-1-yl]-1-((S)-3-methoxy-pyrrolidin-1-yl)-ethanone]
76 nM | 2000 nM | Cn1cc(-c2nc(C3(c4ccc(-c5ccc(N)c(C#N)c5)cc4)CCC3)no2)cn1 [Example 260]
9.3 nM | 240 nM | Cn1cc(-c2nc(C3(c4ccc(-c5cnc(N)c(C#N)c5)cc4)CCC3)no2)cn1 [Example 261, 2-Amino-5-(4-{1-[5-(1-methyl-1H-pyrazol-4-yl)-[1,2,4]oxadiazol-3-yl]-cyclobutyl}-phenyl)-nicotinonitrile]
2.4 nM | 27 nM | Cn1cc(-c2nc(C3(c4ccc(-c5cnc6[nH]ccc6n5)cc4)CCC3)no2)cn1 [Example 262, 2-(4-{1-[5-(1-Methyl-1H-pyrazol-4-yl)-[1,2,4]oxadiazol-3-yl]-cyclobutyl}-phenyl)-5H-pyrrolo[2,3-b]pyrazine]
16 nM | 190 nM | Nc1ncc(-c2ccc(C3(c4noc(-c5cn(C6COC6)cn5)n4)CCC3)cc2)cn1 [Example 263, 5-(4-{1-[5-(1-Oxetan-3-yl-1H-imidazol-4-yl)-[1,2,4]oxadiazol-3-yl]-cyclobutyl}-phenyl)-pyrimidin-2-ylamine]
8.3 nM | 280 nM | Nc1ncc(-c2ccc(C3(c4noc(-c5cncn5C5COC5)n4)CCC3)cc2)cn1 [Example 264, 5-(4-{1-[5-(3-Oxetan-3-yl-3H-imidazol-4-yl)-[1,2,4]oxadiazol-3-yl]-cyclobutyl}-phenyl)-pyrimidin-2-ylamine]
6.2 nM | 55 nM | Cn1cnc(-c2nc(C3(c4ccc(-c5cnc(N)cn5)cc4)CCC3)no2)c1 [Example 265]
6.5 nM | 160 nM | Nc1ncc(-c2ccc(C3(c4noc(-c5csc(N6CCNCC6)n5)n4)CCC3)cc2)cn1 [Example 266, 5-(4-{1-[5-(2-Piperazin-1-yl-thiazol-4-yl)-[1,2,4]oxadiazol-3-yl]-cyclobutyl}-phenyl)-pyrimidin-2-ylamine]
